From ChEMBL document CHEMBL1201862, “PubChem BioAssay data set” (2004)
The source made the active and inactive calls.

Assays:
Vero = test: cells; assay type: functional; settings: Chlorocebus sabaeus
Beta-galactosidase = Beta-galactosidase (Escherichia coli, UniProt Q8VNN2); test: PubChem AID 485352; assay type: functional
[1] = target: T1, Type-1 angiotensin II receptor (Homo sapiens, UniProt P30556); test: AT1 receptor antagonists, dose response, selectivity assay for APJ receptor antagonist project, cell-based, uHTS hits (AID 463214); assay type: functional;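 further: antagonist potency against angiotensin II stimulated AT1 response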
T1 sequence (P30556 whole entry): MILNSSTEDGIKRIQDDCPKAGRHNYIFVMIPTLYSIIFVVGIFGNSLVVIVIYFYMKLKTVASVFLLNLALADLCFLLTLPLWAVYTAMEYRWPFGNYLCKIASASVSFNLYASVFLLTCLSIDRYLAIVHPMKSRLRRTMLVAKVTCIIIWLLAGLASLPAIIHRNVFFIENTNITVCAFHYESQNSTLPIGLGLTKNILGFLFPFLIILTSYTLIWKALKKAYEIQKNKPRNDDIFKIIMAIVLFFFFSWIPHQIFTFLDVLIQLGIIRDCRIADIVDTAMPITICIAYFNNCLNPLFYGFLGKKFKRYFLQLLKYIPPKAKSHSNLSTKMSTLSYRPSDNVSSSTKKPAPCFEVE

Aminopeptidase N = target: T2, Aminopeptidase N (Plasmodium falciparum FcB1/Columbia, UniProt O96935); test: P. falciparum M1AAP inhibitors, biochemical, fluorogenic H-Leu-NHMec substrate, 1536-well (AID 1445); set-up: species or system Plasmodium falciparum 3D7, 3D7
T2 sequence (O96935 whole entry): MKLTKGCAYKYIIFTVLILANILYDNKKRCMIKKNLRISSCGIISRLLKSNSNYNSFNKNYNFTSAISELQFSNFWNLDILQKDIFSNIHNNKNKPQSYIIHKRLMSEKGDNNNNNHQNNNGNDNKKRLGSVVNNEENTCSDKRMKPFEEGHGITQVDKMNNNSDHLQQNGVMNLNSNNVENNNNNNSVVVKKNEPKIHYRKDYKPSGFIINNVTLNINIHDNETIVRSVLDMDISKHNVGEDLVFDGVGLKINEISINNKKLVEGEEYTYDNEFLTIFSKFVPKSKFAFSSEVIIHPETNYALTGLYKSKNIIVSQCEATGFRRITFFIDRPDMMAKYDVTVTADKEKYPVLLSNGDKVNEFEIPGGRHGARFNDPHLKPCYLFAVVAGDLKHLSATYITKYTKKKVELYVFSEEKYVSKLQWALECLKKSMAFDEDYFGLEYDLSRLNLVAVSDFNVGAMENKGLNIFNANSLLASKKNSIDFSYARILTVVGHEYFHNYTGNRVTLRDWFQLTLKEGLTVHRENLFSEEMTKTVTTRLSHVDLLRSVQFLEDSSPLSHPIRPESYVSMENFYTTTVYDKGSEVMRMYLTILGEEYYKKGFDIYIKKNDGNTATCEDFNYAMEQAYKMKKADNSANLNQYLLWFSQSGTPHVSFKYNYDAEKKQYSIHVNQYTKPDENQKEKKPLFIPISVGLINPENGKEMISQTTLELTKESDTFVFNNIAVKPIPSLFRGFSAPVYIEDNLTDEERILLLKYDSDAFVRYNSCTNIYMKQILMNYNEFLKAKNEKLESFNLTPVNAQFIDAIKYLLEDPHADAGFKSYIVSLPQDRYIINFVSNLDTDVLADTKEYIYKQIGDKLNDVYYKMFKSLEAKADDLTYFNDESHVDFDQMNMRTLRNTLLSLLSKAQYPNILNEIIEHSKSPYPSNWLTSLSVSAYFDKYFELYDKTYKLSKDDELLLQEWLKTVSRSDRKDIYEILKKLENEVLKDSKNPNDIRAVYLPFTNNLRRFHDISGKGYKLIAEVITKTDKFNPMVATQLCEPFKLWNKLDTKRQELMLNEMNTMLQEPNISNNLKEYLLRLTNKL

Genome polyprotein = Genome polyprotein (dengue virus type 2, UniProt P29990); test: Dengue-2 NS5 methyltransferase inhibitors, primary screen, biochemical, confirmation dose response (AID 588689); assay type: functional
[2] = inhibitors of firefly luciferase expression or activity, dose response, H4 neuroglioma cells, luminescence (AID 1990); assay type: functional, cell-based
[3] = test system: Streptococcus sp. 'group A'; test: growth inhibition of control SK(-) GAS strain, dose response, counter-screen for streptokinase expression inhibitor project, luminescence, kanamycin, BacTiterGlo, confirmation (AID 1900); assay type: functional, organism-based
[4] = Luminescence Cell-Based Dose Response HTS to Identify Inhibitors of 5'UTR Stem-Loop Driven Prion Protein mRNA Translation in H4 Neuroglioblastoma Cells. [Related pubchem assays: 1827 (Project Summary), 1813 (Primary HTS)]; assay type: functional
[5] = inhibitors of SNCA 5'UTR-driven reporter translation, confirmation, H4 neuroglioma cells, luminescence (AID 1988); assay type: functional, cell-based
[6] = inhibitors of intracellular T. cruzi replication, confirmation, NIH3T3 host cells, beta-gal luminescence (AID 2044); assay type: functional, cell-based;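 further: intracellular parasites grown in NIH/3T3 mouse fibroblasts as host cells; luminescent beta-galactosidase reporter signal from transgenic T. cruzi replicating inside host cells; inhibitors lower the luminescence signal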
[7] = cytotoxicity toward NIH3T3 fibroblasts, dose response, counter-screen, cell-based, ATP luminescence, mouse fibroblasts (AID 2010); assay type: functional;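 further: cells exposed to compound for about 90 hours before reading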
Streptococcus = test: Group A Streptococcus viability loss, dose response, counter-screen for streptokinase expression inhibitor project, luminescence, BacTiterGlo (AID 1915); assay type: functional, organism-based;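 further: potency for reduction of bacterial viability or growth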
[8] = target: T3, Calpain-2 catalytic subunit (Sus scrofa, UniProt P43367); test: pig calpain II inhibitor potency, dose response, biochemical, fluorogenic peptide substrate (AID 1420); assay type: functional
T3 sequence (P43367 whole entry): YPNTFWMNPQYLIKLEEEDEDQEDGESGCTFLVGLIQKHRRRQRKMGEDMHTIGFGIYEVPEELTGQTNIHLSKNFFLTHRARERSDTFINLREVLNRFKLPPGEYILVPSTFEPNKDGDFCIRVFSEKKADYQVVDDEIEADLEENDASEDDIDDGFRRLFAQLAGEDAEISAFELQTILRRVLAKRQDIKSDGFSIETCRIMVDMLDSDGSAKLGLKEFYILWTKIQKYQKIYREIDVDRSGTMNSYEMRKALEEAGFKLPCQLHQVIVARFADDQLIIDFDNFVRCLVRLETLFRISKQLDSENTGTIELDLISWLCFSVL

[9] = target: T4, Microphthalmia-associated transcription factor (Homo sapiens, UniProt O75030); test: TRPM1 promoter luciferase signal decrease, dose response, MITF inhibitor project, cell-based, SK-MEL-5, cherry-picked, set 3 (AID 493073); assay type: functional
T4 sequence (O75030 whole entry): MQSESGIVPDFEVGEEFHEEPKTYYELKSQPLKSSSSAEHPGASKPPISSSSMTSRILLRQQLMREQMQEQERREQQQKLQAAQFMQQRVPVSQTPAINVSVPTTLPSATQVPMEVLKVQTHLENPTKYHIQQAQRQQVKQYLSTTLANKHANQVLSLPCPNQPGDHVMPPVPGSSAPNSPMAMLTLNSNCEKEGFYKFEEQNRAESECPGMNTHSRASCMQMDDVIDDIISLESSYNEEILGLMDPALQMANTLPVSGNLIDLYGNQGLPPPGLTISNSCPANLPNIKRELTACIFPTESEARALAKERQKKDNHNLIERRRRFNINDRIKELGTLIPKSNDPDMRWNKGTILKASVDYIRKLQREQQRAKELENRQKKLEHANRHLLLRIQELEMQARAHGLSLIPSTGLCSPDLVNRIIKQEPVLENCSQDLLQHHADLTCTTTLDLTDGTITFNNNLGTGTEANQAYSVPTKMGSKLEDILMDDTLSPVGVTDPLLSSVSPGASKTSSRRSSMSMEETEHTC

Fatty acid synthase [10] = target: T5, Fatty acid synthase (Homo sapiens, UniProt P49327); test: FAS thioesterase domain inhibitors, dose response, biochemical, endpoint fluorescence intensity, uHTS hits (AID 624327); assay type: functional;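 further: fluorescence from hydrolysis of an O-methyl fluorescein acyl ester substrate by the enzyme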
Fatty acid synthase [11] = target: T5, Fatty acid synthase; test: FAS thioesterase domain inhibitors, dose response, biochemical, kinetic fluorescence intensity (AID 624326); assay type: functional;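 further: rate of fluorescence rise from hydrolysis of a fluorogenic O-methyl fluorescein ester substrate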
Coagulation factor XII = target: T6, Coagulation factor XII (Homo sapiens, UniProt P00748); assay type: functional;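 further: activated factor XIIa alpha cleaving a fluorogenic AMC peptide substrate; inhibitor potency from loss of enzyme activity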
T6 sequence (P00748 whole entry): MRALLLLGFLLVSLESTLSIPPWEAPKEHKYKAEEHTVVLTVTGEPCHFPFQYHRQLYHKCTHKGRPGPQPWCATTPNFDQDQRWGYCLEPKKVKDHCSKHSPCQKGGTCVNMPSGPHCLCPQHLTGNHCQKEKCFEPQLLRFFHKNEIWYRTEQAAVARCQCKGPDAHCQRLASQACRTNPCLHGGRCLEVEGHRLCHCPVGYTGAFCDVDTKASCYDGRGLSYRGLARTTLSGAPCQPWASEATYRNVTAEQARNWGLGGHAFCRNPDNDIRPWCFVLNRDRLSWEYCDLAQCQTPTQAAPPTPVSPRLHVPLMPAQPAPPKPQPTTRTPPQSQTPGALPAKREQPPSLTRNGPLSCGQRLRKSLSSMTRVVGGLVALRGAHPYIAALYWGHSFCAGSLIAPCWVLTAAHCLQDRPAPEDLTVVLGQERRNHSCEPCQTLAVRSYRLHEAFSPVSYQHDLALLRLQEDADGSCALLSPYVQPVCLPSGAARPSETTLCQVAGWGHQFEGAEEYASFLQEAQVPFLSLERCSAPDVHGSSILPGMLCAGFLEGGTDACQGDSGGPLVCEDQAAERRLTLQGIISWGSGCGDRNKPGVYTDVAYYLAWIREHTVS

Beta-galactosidase, sequence (Q8VNN2 whole entry): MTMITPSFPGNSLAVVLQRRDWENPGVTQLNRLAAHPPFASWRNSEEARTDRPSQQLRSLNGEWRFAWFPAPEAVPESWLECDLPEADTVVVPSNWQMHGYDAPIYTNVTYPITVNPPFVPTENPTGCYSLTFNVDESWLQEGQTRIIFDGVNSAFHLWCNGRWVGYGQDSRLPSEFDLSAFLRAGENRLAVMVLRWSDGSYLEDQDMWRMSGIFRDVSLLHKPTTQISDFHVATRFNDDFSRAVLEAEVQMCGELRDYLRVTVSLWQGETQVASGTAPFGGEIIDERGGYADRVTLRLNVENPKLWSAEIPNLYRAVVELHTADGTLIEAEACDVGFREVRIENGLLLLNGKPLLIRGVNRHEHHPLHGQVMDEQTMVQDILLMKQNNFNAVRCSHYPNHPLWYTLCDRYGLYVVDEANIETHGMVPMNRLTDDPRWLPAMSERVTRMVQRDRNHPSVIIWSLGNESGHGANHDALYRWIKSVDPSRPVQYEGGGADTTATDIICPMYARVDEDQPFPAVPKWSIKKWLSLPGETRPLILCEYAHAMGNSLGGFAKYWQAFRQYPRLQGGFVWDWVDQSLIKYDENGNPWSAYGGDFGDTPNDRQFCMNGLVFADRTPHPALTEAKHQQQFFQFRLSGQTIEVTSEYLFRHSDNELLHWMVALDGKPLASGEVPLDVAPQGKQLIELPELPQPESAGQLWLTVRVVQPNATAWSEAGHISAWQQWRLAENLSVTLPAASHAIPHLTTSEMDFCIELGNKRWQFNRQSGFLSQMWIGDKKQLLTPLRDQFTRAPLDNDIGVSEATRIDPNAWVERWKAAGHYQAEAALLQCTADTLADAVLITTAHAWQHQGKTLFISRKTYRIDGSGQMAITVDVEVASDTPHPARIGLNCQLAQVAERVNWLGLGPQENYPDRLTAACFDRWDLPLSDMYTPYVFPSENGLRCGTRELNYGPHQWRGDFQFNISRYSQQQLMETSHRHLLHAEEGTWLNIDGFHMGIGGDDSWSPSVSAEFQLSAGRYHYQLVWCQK
Genome polyprotein, sequence (P29990 2492-3391 limits assumed): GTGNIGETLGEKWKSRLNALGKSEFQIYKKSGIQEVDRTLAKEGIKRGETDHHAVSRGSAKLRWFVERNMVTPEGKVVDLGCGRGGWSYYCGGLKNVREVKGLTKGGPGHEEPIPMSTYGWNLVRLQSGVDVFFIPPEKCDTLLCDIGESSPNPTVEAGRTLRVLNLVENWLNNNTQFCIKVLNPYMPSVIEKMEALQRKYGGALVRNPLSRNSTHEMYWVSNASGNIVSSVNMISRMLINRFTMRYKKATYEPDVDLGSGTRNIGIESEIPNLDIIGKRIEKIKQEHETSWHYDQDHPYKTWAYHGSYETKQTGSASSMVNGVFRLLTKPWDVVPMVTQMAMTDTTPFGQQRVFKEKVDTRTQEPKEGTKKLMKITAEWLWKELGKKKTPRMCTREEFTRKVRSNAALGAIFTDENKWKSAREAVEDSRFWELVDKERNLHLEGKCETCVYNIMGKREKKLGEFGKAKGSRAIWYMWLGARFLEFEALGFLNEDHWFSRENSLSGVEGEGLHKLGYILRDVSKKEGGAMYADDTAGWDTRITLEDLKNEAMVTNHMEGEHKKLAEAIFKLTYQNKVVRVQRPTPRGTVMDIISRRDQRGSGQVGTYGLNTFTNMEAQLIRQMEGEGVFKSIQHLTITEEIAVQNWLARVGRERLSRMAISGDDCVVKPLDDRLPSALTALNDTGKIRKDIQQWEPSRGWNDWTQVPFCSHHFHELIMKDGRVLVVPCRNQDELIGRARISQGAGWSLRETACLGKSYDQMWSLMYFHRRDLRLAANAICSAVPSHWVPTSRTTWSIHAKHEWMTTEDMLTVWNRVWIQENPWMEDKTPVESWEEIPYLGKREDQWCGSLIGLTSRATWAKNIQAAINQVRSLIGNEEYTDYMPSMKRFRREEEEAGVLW
T5 sequence (P49327 whole entry, the tested form may be a part): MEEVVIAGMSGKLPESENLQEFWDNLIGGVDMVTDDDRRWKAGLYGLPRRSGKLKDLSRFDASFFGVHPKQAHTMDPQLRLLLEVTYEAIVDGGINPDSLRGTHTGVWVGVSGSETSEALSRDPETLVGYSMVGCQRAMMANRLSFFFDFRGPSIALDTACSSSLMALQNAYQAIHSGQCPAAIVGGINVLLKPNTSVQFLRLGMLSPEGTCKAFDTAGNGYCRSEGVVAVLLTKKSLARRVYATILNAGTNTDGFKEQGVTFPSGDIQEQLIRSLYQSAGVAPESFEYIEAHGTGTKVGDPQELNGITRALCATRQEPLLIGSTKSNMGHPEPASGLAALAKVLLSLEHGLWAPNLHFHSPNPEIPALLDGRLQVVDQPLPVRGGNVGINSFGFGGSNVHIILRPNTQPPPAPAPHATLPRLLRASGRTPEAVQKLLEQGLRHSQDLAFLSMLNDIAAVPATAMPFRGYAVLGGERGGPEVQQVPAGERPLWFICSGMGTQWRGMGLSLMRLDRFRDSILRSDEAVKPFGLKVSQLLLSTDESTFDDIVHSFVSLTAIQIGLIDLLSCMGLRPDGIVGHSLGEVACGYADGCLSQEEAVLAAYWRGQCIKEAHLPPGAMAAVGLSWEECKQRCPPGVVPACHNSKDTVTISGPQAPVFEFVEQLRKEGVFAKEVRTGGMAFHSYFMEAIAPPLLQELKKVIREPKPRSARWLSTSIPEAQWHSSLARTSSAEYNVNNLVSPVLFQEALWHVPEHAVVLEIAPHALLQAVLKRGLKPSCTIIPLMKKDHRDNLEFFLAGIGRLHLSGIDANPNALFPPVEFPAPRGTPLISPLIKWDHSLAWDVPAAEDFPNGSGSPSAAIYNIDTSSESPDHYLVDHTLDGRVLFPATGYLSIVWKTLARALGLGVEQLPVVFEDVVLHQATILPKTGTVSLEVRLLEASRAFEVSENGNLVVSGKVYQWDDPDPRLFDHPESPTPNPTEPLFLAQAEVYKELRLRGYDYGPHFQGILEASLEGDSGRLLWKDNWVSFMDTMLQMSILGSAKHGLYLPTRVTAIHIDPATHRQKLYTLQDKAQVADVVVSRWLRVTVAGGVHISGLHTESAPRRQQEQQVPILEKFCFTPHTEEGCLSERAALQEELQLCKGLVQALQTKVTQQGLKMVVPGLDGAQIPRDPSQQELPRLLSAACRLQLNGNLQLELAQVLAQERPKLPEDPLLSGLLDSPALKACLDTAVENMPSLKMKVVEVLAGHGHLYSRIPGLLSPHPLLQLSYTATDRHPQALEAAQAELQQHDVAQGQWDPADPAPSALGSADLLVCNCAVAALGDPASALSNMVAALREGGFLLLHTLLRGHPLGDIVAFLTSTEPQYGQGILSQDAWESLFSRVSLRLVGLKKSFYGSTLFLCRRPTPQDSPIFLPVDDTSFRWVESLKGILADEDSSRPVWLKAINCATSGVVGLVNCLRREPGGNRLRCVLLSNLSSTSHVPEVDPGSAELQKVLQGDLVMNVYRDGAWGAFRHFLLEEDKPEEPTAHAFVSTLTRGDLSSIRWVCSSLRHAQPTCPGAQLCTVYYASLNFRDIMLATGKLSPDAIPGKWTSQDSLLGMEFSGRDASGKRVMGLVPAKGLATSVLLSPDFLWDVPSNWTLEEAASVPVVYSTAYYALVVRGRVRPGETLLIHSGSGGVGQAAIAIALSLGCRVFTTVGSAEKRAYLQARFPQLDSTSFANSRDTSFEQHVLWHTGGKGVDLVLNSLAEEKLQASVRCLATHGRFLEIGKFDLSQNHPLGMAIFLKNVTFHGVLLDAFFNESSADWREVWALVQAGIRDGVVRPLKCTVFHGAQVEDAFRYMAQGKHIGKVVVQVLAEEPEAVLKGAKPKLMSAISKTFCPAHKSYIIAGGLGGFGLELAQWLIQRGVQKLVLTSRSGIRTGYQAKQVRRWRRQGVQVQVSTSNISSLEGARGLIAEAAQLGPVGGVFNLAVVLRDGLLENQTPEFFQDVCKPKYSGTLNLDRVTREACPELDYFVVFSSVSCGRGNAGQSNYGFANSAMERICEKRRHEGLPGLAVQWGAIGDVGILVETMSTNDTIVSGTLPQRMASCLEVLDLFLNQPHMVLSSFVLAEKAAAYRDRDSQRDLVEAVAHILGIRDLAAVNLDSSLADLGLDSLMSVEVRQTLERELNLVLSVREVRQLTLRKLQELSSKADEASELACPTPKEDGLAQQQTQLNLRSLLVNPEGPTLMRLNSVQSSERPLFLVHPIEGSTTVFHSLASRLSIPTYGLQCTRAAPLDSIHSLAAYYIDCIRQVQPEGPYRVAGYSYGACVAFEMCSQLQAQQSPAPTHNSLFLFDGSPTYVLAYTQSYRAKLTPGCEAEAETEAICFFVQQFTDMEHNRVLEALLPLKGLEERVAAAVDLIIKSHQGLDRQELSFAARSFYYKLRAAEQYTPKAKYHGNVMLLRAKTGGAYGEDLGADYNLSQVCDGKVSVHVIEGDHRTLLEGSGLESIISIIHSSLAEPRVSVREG

CN(C)CC1CCC/C(=C\c2ccc(OC(=O)/C=C/c3ccccc3)cc2)C1=O (stereo not given)
CC50 (Vero): > 25 µM (active)

COc1ccc(C(=O)NC(=S)Nc2nnn(C)n2)cc1
EC50 (Beta-galactosidase): > 40 µM (inactive)
IC50 [1]: > 40 µM (not active)

COc1ccccc1/C=C1\SC(=S)N(C(C(=O)O)c2ccccc2)C1=O (stereo not given)
IC50 (Aminopeptidase N): 26 µM (active)
IC50 (Genome polyprotein): 39.1 µM (active)

CC(C)(C)c1cc(Cl)c(O)c(NC(=S)NC(=O)c2cccnc2)c1
EC50 [2]: 16.5 µM (active)
EC50 [3]: 0.448 µM (active)
EC50 [4]: 15 µM (active)
EC50 (Beta-galactosidase): > 40 µM (inactive)
EC50 [5]: > 120 µM (not active)
EC50 [6]: 2.56 µM (active)
IC50 [1]: 22.2 µM (not active)
EC50 [7]: 6.97 µM (active)
EC50 (Streptococcus): 6.42 µM (active)

CCOc1cc(/C=C(/C#N)c2ccc(Cl)cc2)cc(Cl)c1OCC(=O)O
IC50 [8]: 3.06 µM (not active)
AC50 [9]: 5.61 µM (active)
IC50 (Genome polyprotein): 34.5 µM (active)
IC50 (Fatty acid synthase [10]): 6.78 µM (active)
IC50 (Fatty acid synthase [11]): 10.4 µM (active)

CC(C)c1ccc(O)c(NC(=S)NC(=O)c2cccnc2)c1
EC50 (Beta-galactosidase): > 40 µM (inactive)
IC50 [1]: 23.2 µM (not active)
IC50 (Coagulation factor XII): > 50 µM (inactive)

C=C1C(=O)OC2CC3(C)OC3CCC(C)=CC(OC(C)=O)C12 (stereo not given)
CC50 (Vero): 23.8 µM (active)

OCCN1C[C@H](O)[C@@H](O)[C@H](O)[C@H]1CO [MIGLITOL]
EC50 (Beta-galactosidase): > 40 µM (inactive)
IC50 [1]: > 40 µM (not active)
